Assay results taken from patent US9273319B2, “Molecular switches and methods for making and using the same” (The Johns Hopkins University, priority 2002, dated 2016).
≈ marks a conversion by molar mass, not a printed value.

Columns and labels:
[1] = molecular target: T1, T164-165 β-lactamase: maltose binding protein (MBP) fusion (Escherichia coli, UniProt P0AEX9, INS191[…]); assay: Effect of sugars on the T164-165 fusion's hydrolysis of nitrocefin (FIG. 8); format: biochemical, E. coli; details: 150 μM nitrocefin, 5 mM of the indicated sugar
T1 construct: made in house; host or cells: E. coli (library selected in malE auxotroph PM9F'; derivative of plasmid pDIMC8-Mal, IPTG-inducible lac promoter)
Method: The fusion comprises an insertion of β-lactamase amino acid sequences into an MBP acceptor polypeptide with a tandem duplication of amino acids 164-165 of MBP at the insertion site. The velocity of nitrocefin hydrolysis with 150 μM nitrocefin and 5 mM of the indicated sugars was compared to the velocity without any sugar. […] All sugars known to bind to wildtype MBP and induce a conformational change (maltose, maltotriose and maltohexose) increase the rate of hydrolysis by approximately 40%.
Although MBP can bind many other linear maltodextrins, cyclodextrins and reduced or oxidized variants thereof, only those ligands which, induce a conformational change in MBP (Hall, et al. (1997) J. Biol. Chem. 272(28): 17605-17609; Ball, et al. (1997) J. Biol. Chem. 272(28): 17610-17614) behaved as a switch (see, FIG. 8).

DH5α/pDIMC8-Mal = assay: MIC for ampicillin on LB plates; format: cell-based, E. coli; details: Escherichia coli
Text: The E. coli […] was cloned into plasmid pDIMC8 (Ostermeier and Benkovic, 1999, Nat Biotechnol. 17:1205-1209) under control of the IPTG inducible lac promoter to create plasmid […].

OC[C@H]1O[C@H](O[C@H]2[C@H](O)[C@@H](O)C(O)O[C@@H]2CO)[C@H](O)[C@@H](O)[C@@H]1O (mixture of isomers) [maltose]
increase of rate of nitrocefin hydrolysis compared to velocity without any sugar [1]: approximately 40%

OC[C@H]1O[C@H](O[C@H]2[C@H](O)[C@@H](O)[C@@H](O[C@H]3[C@H](O)[C@@H](O)[C@@H](O[C@H]4[C@H](O)[C@@H](O)[C@@H](O[C@H]5[C@H](O)[C@@H](O)[C@@H](O[C@H]6[C@H](O)[C@@H](O)C(O)O[C@@H]6CO)O[C@@H]5CO)O[C@@H]4CO)O[C@@H]3CO)O[C@@H]2CO)[C@H](O)[C@@H](O)[C@@H]1O (stereo partly shown) [maltohexose]
increase of rate of nitrocefin hydrolysis compared to velocity without any sugar [1]: approximately 40%

OC[C@@H](O)[C@@H](O[C@H]1O[C@H](CO)[C@@H](O)[C@H](O)[C@H]1O)[C@H](O)[C@@H](O)CO [maltitol]
increase of rate of nitrocefin hydrolysis compared to velocity without any sugar [1]: did not have a significant effect

maltotriose
increase of rate of nitrocefin hydrolysis compared to velocity without any sugar [1]: approximately 40%

CC1(C)S[C@@H]2[C@H](NC(=O)[C@H](N)c3ccccc3)C(=O)N2[C@H]1C(=O)O [ampicillin]
MIC (DH5α/pDIMC8-Mal): 30 to 35 µg/mL (≈ 85.9 to 100 µM)

OC[C@H]1O[C@@H]2O[C@H]3[C@H](O)[C@@H](O)[C@@H](O[C@H]4[C@H](O)[C@@H](O)[C@@H](O[C@H]5[C@H](O)[C@@H](O)[C@@H](O[C@H]6[C@H](O)[C@@H](O)[C@@H](O[C@H]7[C@H](O)[C@@H](O)[C@@H](O[C@H]8[C@H](O)[C@@H](O)[C@@H](O[C@H]1[C@H](O)[C@H]2O)O[C@@H]8CO)O[C@@H]7CO)O[C@@H]6CO)O[C@@H]5CO)O[C@@H]4CO)O[C@@H]3CO [β-cyclodextrin]
increase of rate of nitrocefin hydrolysis compared to velocity without any sugar [1]: did not have a significant effect

OC[C@H]1O[C@@](CO)(O[C@H]2O[C@H](CO)[C@@H](O)[C@H](O)[C@H]2O)[C@@H](O)[C@@H]1O [sucrose]
increase of rate of nitrocefin hydrolysis compared to velocity without any sugar [1]: did not have a significant effect
